Data published in publication PMC3579865, “An Albumin-Derived Peptide Scaffold Capable of Binding and Catalysis” (PLoS ONE, 2013).

Target: T1, human serum albumin (HSA) (Homo sapiens, UniProt P02768)
T1 construct: gene ALB; native full-length HSA, essentially fatty acid free; also measured on GST-HSA100 (A194 to E294)
Test: tryptophan fluorescence quenching titration (Stern-Volmer and Hill analysis)
Assay type: binding

T1 sequence (P02768 25-609): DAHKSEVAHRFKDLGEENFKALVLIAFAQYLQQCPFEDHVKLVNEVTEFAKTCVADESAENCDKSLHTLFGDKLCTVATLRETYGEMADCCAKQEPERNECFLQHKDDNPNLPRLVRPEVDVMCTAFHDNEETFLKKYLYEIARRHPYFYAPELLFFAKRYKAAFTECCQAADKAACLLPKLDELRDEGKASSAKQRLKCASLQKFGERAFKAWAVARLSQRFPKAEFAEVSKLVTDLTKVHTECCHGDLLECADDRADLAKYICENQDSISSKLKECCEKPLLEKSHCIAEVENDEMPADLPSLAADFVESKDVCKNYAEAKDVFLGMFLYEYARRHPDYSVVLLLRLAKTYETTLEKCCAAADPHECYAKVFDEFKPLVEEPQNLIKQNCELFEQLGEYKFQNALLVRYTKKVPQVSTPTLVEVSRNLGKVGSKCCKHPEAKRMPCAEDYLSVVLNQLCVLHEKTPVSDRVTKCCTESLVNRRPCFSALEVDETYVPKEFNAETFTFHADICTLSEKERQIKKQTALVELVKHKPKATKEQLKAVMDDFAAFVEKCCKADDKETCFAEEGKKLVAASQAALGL

O=C1Nc2ccc(Cl)cc2[C@@](C#CC2CC2)(C(F)(F)F)O1 [2a, efavirenz]
Efavirenz / HSA: 1.89±0.04 10^−4 molL^−1
